Experimental data as given in patent US20210386826A1, “Combination for Treating Cancer” (Pfizer Inc., priority 2018, published 2021).

Target: IL-2Rαβ (Homo sapiens, UniProt P01589+P14784)
Excerpt: The term “CD-122-biased cytokine agonist” (also referred to as an interleukin-2 receptor beta (ILRβ), selective agonist) as used herein, refers to an agonist that has a greater affinity for binding to IL-2Rβ than to IL-2Rαβ.

IL-2Rαβ, sequence (P01589 22-240 limits assumed): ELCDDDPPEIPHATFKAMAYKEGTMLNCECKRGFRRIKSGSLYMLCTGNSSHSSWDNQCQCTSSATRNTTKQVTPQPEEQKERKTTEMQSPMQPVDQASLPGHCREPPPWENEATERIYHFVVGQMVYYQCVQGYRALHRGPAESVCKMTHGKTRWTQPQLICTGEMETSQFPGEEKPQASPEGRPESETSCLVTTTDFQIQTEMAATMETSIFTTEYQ
IL-2Rαβ, sequence (P14784 27-240 limits assumed): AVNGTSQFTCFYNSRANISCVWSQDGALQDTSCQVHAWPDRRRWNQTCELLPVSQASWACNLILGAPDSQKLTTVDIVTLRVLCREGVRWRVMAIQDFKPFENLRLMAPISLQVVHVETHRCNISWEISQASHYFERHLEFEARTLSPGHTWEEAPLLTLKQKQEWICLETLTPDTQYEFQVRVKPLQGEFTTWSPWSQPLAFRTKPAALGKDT

**Q.** For “(2,7-(bis-methoxyPEG10kD-carboxyamide)(9H-fluorene-9-yl)methyl N-carbamate)6avg interleukin-2 [bempegaldesleukin]”, which “decrease in affinity to IL-2Rαβ relative to IL-2” value is on record?
**A.** Its value is roughly 60 fold.
